# Source: patent US12578273B2, “Ph-reversible leuco-BODIPY probe for in situ visualization of extracellular vesicles and their secretion from living cells” (The Chinese University of Hong Kong, priority 2021, dated 2026)
# Legend:
# Format in all cases: cell-based
# HEK293 cells [1] = test: Pathway for the cellular entry of the probe (NaN3 or 4 °C block of energy-dependent endocytosis); conditions: 5 μM probe, 30 min
# Procedure: (§1) FIGS. 29A-29F Pathway for the cellular uptake of the probe. The cells were either (FIGS. 29A-29C) treated with sodium azide (NaN3) or (FIGS. 29D-29F) incubated at 4° C. for blocking energy-dependent endocytosis (red bars). Cells under normal cell culture conditions (37° C. without NaN3) serve as the positive control (green bars). Statistical analysis was conducted by two-tailed Student's t test. Not significant (ns) P>0.05. Error bar indicates standard deviation.
# (§2) Cells were firstly cultured in a 96-well plate and allowed to reach about 90% confluence. In our first experiment, the cells were either pretreated in 0.1 mL of complete DMEM containing 5 mM NaN3 (Sigma) at 37° C. for 3 h. After that, the medium was replaced by 0.1 mL of complete medium containing 5 mM NaN3 and 5 μM leuco-BODIPY (in 0.5% DMSO) at 37° C. for another 30 min. In our second experiment, the cells were preincubated with 0.1 mL of complete DMEM inside a 4° C. refrigerator for 30 min. After that, the medium was replaced by 0.1 mL of complete medium containing 5 μM leuco-BODIPY (in 0.5% DMSO) for another 30 min and incubated at 4° C. As the […], cells were incubated with 0.1 mL of complete medium containing 5 μM leuco-BODIPY (in 0.5% DMSO) at 37° C. for 30 min. At the end of both experiments, the fluorescence of the treated cells was measured by a microplate reader (ThermoFisher Fluoroskan Ascent, Waltham, MA) at an excitation wavelength of 584 nm and emission wavelength of 612 nm.
# (§3) We studied the mechanism for the cellular uptake of our probe by a pharmacological approach.
# HeLa cells [2] = test: as above; conditions: 5 μM probe, 30 min
# Procedure: as §1, §2, §3
# A549 cells [3] = test: as above; conditions: 5 μM probe, 30 min
# Procedure: as §1, §2, §3
# [4] = test system: EVs secreted by A549 cells; test: Estimation of the fluorescence signal per EV; conditions: 5 μM leuco-BODIPY, 30 min, excitation 584 nm, emission 612 nm, net fluorescence divided by number of EVs (NTA)
# Procedure: (§4) Cells were pre-seeded in a 96-well plate in complete DMEM without phenol red. During the experiment, 200 μL of either fresh complete DMEM without phenol red or 5 μM leuco-BODIPY formulated in fresh complete DMEM without phenol red was added to the cells. After 30 min, the medium was collected and centrifuged for 10 min at 200×g to remove any dye-stained cell debris. The fluorescence signal in the medium was measured by a fluorescent plate reader (ThermoFisher Fluoroskan Ascent) at an excitation wavelength of 584 nm and emission wavelength of 612 nm. The net fluorescence in the dye-treated EV sample was determined by subtracting the background fluorescence of the untreated EV sample from the fluorescence of the dye-treated EV sample. Complete DMEM without phenol red was also used as a control to determine the background fluorescence of the blank culture medium. After the microplate reader experiment, each EV sample was made up to a total of 1 mL by adding DMEM without phenol red, followed by injection into a Malvern Nanosight NS500 instrument for measuring the total number of EVs in the sample. […] The fluorescence signal per EV was estimated by dividing (1) the net fluorescence (with background subtraction) of the EV sample as measured by the microplate reader by (2) the number of EVs in the sample as measured by NTA.
# (§5) Moreover, we incubated the three cell types with our probe for 30 min, isolated the EVs secreted to the culture medium, centrifuged the collected medium to remove any dye-stained cell fragments, and confirmed the detection of fluorescence in the isolated EVs (Table 1). By contrast, for the EVs isolated from the same cell types under the same culture conditions but without treatment by our probe, the fluorescence detected was at the background level of blank culture medium.
# (§6) Table 1: Estimate of the number of signals per EV. The fluorescence signal per EV is expressed in arbitrary units (a.u.), a relative value that highly depends on pH, dye concentration, and laser power. […]
# [5] = test system: EVs secreted by HEK293 cells; test: Estimation of the fluorescence signal per EV; conditions: 5 μM leuco-BODIPY, 30 min, excitation 584 nm, emission 612 nm, net fluorescence divided by number of EVs (NTA)
# Procedure: as §4, §5, §6
# [6] = test system: EVs secreted by HeLa cells; test: Estimation of the fluorescence signal per EV; conditions: 5 μM leuco-BODIPY, 30 min, excitation 584 nm, emission 612 nm, net fluorescence divided by number of EVs (NTA)
# Procedure: as §4, §5, §6
# HEK293 cells [7] = test: Cytotoxicity of the probe (alamarBlue cell viability); conditions: 2 μM, 0.1% DMSO, 12 h
# Procedure: (§7) FIGS. 28A-28C Cytotoxicity of the probe. Pre-seeded in 96-well plates, HEK293, HeLa, and A549 cells were incubated in complete DMEM containing different concentrations of leuco-BODIPY [dissolved in dimethyl sulfoxide (DMSO)] for 12 h. The alamarBlue reagent (Invitrogen) was used to test cell viability by measuring the optical absorbance at 570 nm and 600 nm by a Multiskan GO UV-absorbance microplate reader. Reported data represent mean±SD from three independent experiments.
# as §3
# HeLa cells [8] = test: as above; conditions: 2 μM, 0.1% DMSO, 12 h
# Procedure: as §7, §3
# A549 cells [9] = test: as above; conditions: 2 μM, 0.1% DMSO, 12 h
# Procedure: as §7, §3
# [10] = pretreatment with sodium azide (5 mM)
smiles,measurement,setting,value
CCOC(=O)C(=Cc1ccc2n1[B-](F)(F)n1c(C=C(C(=O)OCC)C(=O)OCC)ccc1C2(OC)c1ccncc1)C(=O)OCC [leuco-BODIPY],cellular uptake of the probe,HEK293 cells [1]; preincubation at 4 °C,did not significantly affect
same,cellular uptake of the probe,HEK293 cells [1]; [10],did not significantly affect
same,cellular uptake of the probe,HeLa cells [2]; preincubation at 4 °C,did not significantly affect
same,cellular uptake of the probe,HeLa cells [2]; [10],did not significantly affect
same,cellular uptake of the probe,A549 cells [3]; preincubation at 4 °C,did not significantly affect
same,cellular uptake of the probe,A549 cells [3]; [10],did not significantly affect
same,Mean fluorescence signal per EV,[4],4.17 × 10^−7 a.u.
same,Mean fluorescence signal per EV,[5],1.67 × 10^−6 a.u.
same,Mean fluorescence signal per EV,[6],4.63 × 10^−7 a.u.
same,cell viability,HEK293 cells [7],did not severely reduce cell viability
same,cell viability,HeLa cells [8],did not severely reduce cell viability
same,cell viability,A549 cells [9],did not severely reduce cell viability
